Molecules are shown by their SMILES.

The test concerns the target serotonin transporter (hSERT) (Homo sapiens, UniProt P31645). The test can be described thus: fluorometric uptake. The class given is cell-based.

Chain of serotonin transporter (hSERT) (P31645 whole entry): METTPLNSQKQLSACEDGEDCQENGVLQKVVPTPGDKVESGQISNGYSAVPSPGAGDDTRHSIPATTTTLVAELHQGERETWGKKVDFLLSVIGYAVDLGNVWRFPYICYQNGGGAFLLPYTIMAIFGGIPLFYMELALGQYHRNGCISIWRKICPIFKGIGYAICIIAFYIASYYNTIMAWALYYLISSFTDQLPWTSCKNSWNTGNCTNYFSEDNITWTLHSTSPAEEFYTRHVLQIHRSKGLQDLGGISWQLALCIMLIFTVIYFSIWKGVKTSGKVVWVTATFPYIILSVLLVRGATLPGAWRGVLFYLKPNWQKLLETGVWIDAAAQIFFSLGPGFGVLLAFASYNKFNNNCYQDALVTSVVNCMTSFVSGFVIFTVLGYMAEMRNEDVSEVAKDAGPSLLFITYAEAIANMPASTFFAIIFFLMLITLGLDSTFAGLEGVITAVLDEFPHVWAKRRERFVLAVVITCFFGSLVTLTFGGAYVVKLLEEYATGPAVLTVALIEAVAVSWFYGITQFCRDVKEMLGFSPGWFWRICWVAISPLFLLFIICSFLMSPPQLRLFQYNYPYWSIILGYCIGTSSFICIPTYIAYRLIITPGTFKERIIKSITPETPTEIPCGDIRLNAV

As for `NCCc1ccc2[nH]c3ccccc3c(=O)c2c1` [FFN54], the “fluorometric uptake (5 μM) in hSERT-HEK cells with and without imipramine; S/B =” value is “FFN54 showed hSERT-dependent cell uptake in a multi-well fluorometric assay using hSERT-transfected human kidney cells”.

The record behind these values is paper PMC6342556 (ACS chemical neuroscience, 2018).
